# Experimental data taken from patent US11896568B2, “Compositions and methods for treating patients suffering from glioma or leukemia” (University of Cincinnati, priority 2016, dated 2024).
# Assays:
# [1] = system: Primary AML cells with IDH mutations; assay: JQ1 sensitivity of primary AML cells; type: cell-based, human; details: "often"
# [2] = system: R-2HG-resistant leukemic cells; assay: JQ1 with R-2HG in resistant leukemic cells, cell viability; type: cell-based, human; details: inhibition of MYC signaling by JQ1
# Protocol: Cell proliferation/viability, cell cycle and cell apoptosis assays. To study the effects of R-2HG, FTO, or IDH1^R132H on viability, the cells were seeded into 96-well plates at the concentration of 5,000-10,000 cells/well in triplicates and MTT (G4000, Promega) was used to assess cell proliferation and viability following the manufacturer's instructions. For cell cycle analysis, Propidium iodide (PI) DNA staining was used to assess the cells at G0/G1, S and G2/M phases, while Hoechst 33342 and Pyronin Y were used to determine the cells at G0, G1 and S/G2/M stages. For the PI staining, cells were resuspended in Krishan's reagent (0.05 mg/ml PI, 0.1% trisodium citrate, 0.02 mg/ml ribonuclease A, 0.3% NP-40), incubated at 37° C. for 30 minutes and then applied to the flow cytometer.; For Hoechst/Pyronin Y staining, the cells were suspended in cell culture medium, incubated at 37° C. for 45 minutes with existence of 10 ug/mL Hoechst 33342 and further incubated at 37° C. for 15 minutes with existence of Pyronin Y before flow cytometry. Cell apoptosis assay was conducted with FITC Annexin V Apoptosis Detection Kit I (BD Pharmingen) according to the manufacturer's instructions.
smiles,measurement,setting,value
Cc1sc2c(c1C)C(c1ccc(Cl)cc1)=N[C@@H](CC(=O)OC(C)(C)C)c1nnc(C)n1-2 [JQ1],IC50,[1],< 1000 nM
same,sensitivity of R-2HG-resistant leukemic cells to exogenous R-2HG or IDH1^R132H,[2],notably increased sensitivity
